Tests used:
recombinant PRL-2 = molecular target: T1, recombinant PRL-2 (Homo sapiens, UniProt Q12974); assay: In vitro PTPase assay with recombinant PRL; assay type: biochemical; conditions: washing process / stable complex
T1 construct: made in house; host or cells: E. coli DH5α
T1 sequence (Q12974 1-167): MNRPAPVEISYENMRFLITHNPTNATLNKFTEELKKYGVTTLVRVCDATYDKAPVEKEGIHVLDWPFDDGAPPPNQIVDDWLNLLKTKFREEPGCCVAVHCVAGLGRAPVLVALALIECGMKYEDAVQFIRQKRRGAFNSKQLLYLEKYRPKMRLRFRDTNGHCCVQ
Experimental: In vitro PTPase activities were measured using the commercial protein tyrosine phosphatase assay kit (UBI) following established procedure. […] 100 μl of Malachite Green solution was added and incubated for 5 minutes, and the absorbance at 660 nm was measured after 5 minutes.
Recombinant GST fusion proteins of human PRL-1, 2 and 3 phosphatases were purified with glutathione beads from DH5α bacteria transformed by pGEX vectors containing cDNA fragments encoding the human PRLs which were generated by RT-PCR from H9 cells and confirmed by sequence analysis. Activities of the purified recombinant PRL proteins in dephosphorylating DiFMUP in the absence or presence of various inhibitors were measured following established procedure.
To assess whether sodium stibogluconate is an inhibitor of oncogenic PRL phosphatases, its effects on the PTPase activity of recombinant PRLs were evaluated by in vitro PTPase assays.

Baf3 cells = assay: IL-3-induced proliferation of Baf3 cells; assay type: cell-based, murine; conditions: at 1,000 μg/ml
Experimental: The murine hematopoietic cell line Baf3 was maintained in RPMI 1640 medium supplemented with 10% fetal calf serum (FCS) and murine IL-3 (20 units/ml) as described previously. Human myeloid cell line TF-1 was maintained in RPMI 1640 supplemented with 10% FCS and 40 ng/ml of recombinant human GM-CSF as described previously. For cell proliferation assays, cells were washed in 10% FCS medium twice, resuspended in 10% FCS medium, incubated at 37° C. for 16 hours and then cultured at 37° C. in 10% FCS medium containing various amounts of cytokines, sodium stibogluconate, or PSbT for 3-6 days as indicated. The cell numbers in proliferation assays were determined by an MTT assay or by microscopic cell counting as indicated.

NB4 cells = assay: Differentiation, proliferation and cell cycle of AML cell line; assay type: cell-based, human
Experimental: Cell lines, cell culture, and cell proliferation assay. The NB4 cell line was a gift from Dr. Dan Lindner of CCF. HL60 and U937 cell lines were purchased from ATCC. These human AML cell lines were maintained in RPMI 1640 medium supplemented with 10% fetal calf serum (FCS). For cell proliferation assays, cells were cultured at 37° C. in 10% FCS medium containing various amounts of sodium stibogluconate for 6 days. The cell numbers in the cultures were determined by an MTT assay as described previously.
Differentiation of AML cell lines was assessed by their ability to produce superoxide as measured by reduction of NBT to formazan and by analysis of expression of CD11b surface marker by flow cytometry. For NBT reduction, each cell suspension was mixed with an equal volume of solution containing 1 mg/ml of NBT (Sigma) and 2.5 μg/ml of TPA for 30 minutes at 37° C. After incubation, cells containing the purple formazan deposits and cells devoid of NBT-reducing activity (white cells) in each sample were determined by counting 200 cells under microscope. We expressed the data as percentage of the following ratio: purple cells/purple+white cells. For analysis of cell surface antigens, cells were exposed to phycoerythrin (PE)−conjugated murine anti-human CD11b (DAKO corp, Carpinteria, Calif.). Analysis of fluorescence was performed on a FACScan flow cytometer (Beckton Dickinson, Mountain View, Calif.). The cell cycle was analyzed by flow cytometry after 3 days of culture of NB4 cells in the absence or presence of sodium stibogluconate (250 μg/ml) or ATRA (1 μM). Briefly, the cells were fixed in cold ethanol and incubated for 30 minutes at 4° C. in the dark with a solution of […] propidium iodide, 1 mg/ml RNase and 0.1% NP-40. Analysis was performed immediately after staining using the CELLFIT program (Becton Dickinson, Mountain View, Calif.).

[1] = test system: DR cells (Burkitt's Lymphoma); assay: Growth inhibition of human tumor cell lines (MTT); assay type: cell-based
Experimental: (§1) FIG. 8 illustrates growth inhibition of human cell lines of hematopoietic malignancies by sodium stibogluconate and/or IFNα: A and B. Growth of DS and DR cells cultured in the absence or presence of various amounts of sodium stibogluconate and/or IFNα (1,000 u/ml) for 3 days was measured by MTT assays; C. Percentage of growth inhibition of DR cells calculated from data in B; D. Percentage of growth inhibition of DR cells by IFNα (1,000 u/ml) and various amounts of sodium stibogluconate in day 6 cultures measured by MTT assays; E. Percentage of growth inhibition of U266 cells by IFNα (1,000 u/ml) and various amounts of sodium stibogluconate in day 6 cultures as measured by MTT assays.

[2] = test system: U266 cells (Multiple myeloma); assay: Growth inhibition of human tumor cell lines (MTT); assay type: cell-based; conditions: SS 12.5 μg/ml, IFNα 1,000 u/ml, alone or combined
Experimental: as §1

Peer cells (T-ALL) = assay: Growth inhibition of human tumor cell lines; assay type: cell-based; conditions: SS 12.5 μg/ml, IFNα 1,000 u/ml, alone or combined
WM9 cells = assay: Apoptotic cells by Annexin V/propidium iodide assay (fluorescent microscopy); assay type: cell-based, human; conditions: 3 days, control 5%
Experimental: Detection of apoptotic cells by Annexin V/propidium iodide assay. Annexin V staining of exposed membrane phospholipid phosphatidylserine (PS) was done using the Annexin V assay kit (Pharmingen, San Diego, Calif.). Briefly, U266 or WM9 cells were cultured in the 10% FCS RPMI 1640 medium in the absence or presence of sodium stibogluconate, IFNα, or both for 3 days. Cells were then washed in PBS twice and stained in binding buffer (10 mM Hepes, pH 7.4; 140 mM NaCl; 2.5 mM CaCl2) containing Annexin V-FITC and propidium iodide for 15 min. The reaction was stopped by adding 10 volumes of binding buffer and analyzed by FACS (Becton Dickinson Facsvantage) or fluorescent microscopy.

Compound	reversibility of PRL-2 inactivation (recombinant PRL-2)	IL-3-induced Baf3 growth (Baf3 cells)	proliferation of NB4 cells (NB4 cells; 12.5-400 μg/ml, 6 days)	cell cycle arrest (DNA content analysis) (NB4 cells; 3 days, sodium stibogluconate 250 μg/ml, ATRA 1 μM)	expression levels of PML/RARα chimeric protein (NB4 cells; NB4 cells)	NB4 cell differentiation (NBT positive cells) (NB4 cells; dose- and time-dependent)	% of growth inhibition by day 6 (±s.d.) ([1]; DR, SS 12.5 μg/ml, IFNα 1,000 u/ml, alone or combined) [%]	growth inhibition of DR cells, day 3 ([1]; IFNα 1,000 u/ml alone or with various amounts of sodium stibogluconate, day 3) [%]	% of growth inhibition by day 6 (±s.d.) [2]	% of growth inhibition by day 6 (±s.d.) (Peer cells (T-ALL))	percentage of apoptotic cells (WM9 cells) [%]
O.O.O.O.O.O.O.O.O.O=C([O-])[C@@H]1[O][Sb]2([O-])([O][Sb]34([OH])[O][C@H]([C@H](O)CO)[C@H]([O]3)[C@H](C(=O)[O-])[O]4)[O][C@H]([C@H](O)CO)[C@@H]1[O]2.[Na+].[Na+].[Na+] [sodium stibogluconate]	irreversibly inhibits	suppressed	markedly inhibited	growth arrest at S phase	no detectable effect	induced	–	–	–	–	–
IFNα	–	–	–	–	–	–	39	19	78 (10) %	86 (4) %	15
